Assay results: PubChem BioAssay (NCI)
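Grown in 96-well plates, cells were treated for 48 hours with each compound at five concentrations. Insufficient inhibition: endpoint recorded as highest concentration tested. TGI is the concentration that stops growth completely.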

How the values were obtained:
Assay in all cases: DTP human tumour cell line panel, 48 h
U251 CNS = tested on: U251 CNS
786-0 renal = tested on: 786-0 renal
IGROV1 ovarian = tested on: IGROV1 ovarian
NCI-H226 lung = tested on: NCI-H226 lung
OVCAR-8 ovarian = tested on: OVCAR-8 ovarian
MDA-MB-435 = tested on: MDA-MB-435
DU-145 prostate = tested on: DU-145 prostate
LOX IMVI melanoma = tested on: LOX IMVI melanoma
SW-620 colon = tested on: SW-620 colon
MOLT-4 leukemia = tested on: MOLT-4 leukemia
SNB-19 CNS = tested on: SNB-19 CNS
HCT-15 colon = tested on: HCT-15 colon
UO-31 renal = tested on: UO-31 renal
SK-MEL-28 melanoma = tested on: SK-MEL-28 melanoma
NCI-H23 lung = tested on: NCI-H23 lung
NCI-H460 lung = tested on: NCI-H460 lung
MDA-N = tested on: MDA-N
SF-295 CNS = tested on: SF-295 CNS
SK-OV-3 ovarian = tested on: SK-OV-3 ovarian
RXF 393 renal = tested on: RXF 393 renal

SMILES	TGI (U251 CNS) [µM]	TGI (786-0 renal) [µM]	TGI (IGROV1 ovarian) [µM]	TGI (NCI-H226 lung) [µM]	TGI (OVCAR-8 ovarian) [µM]	TGI (MDA-MB-435) [µM]	TGI (DU-145 prostate) [µM]	TGI (LOX IMVI melanoma) [µM]	TGI (SW-620 colon) [µM]	TGI (MOLT-4 leukemia) [µM]	TGI (SNB-19 CNS) [µM]	TGI (HCT-15 colon) [µM]	TGI (UO-31 renal) [µM]	TGI (SK-MEL-28 melanoma) [µM]	TGI (NCI-H23 lung) [µM]	TGI (NCI-H460 lung) [µM]	TGI (MDA-N) [µM]	TGI (SF-295 CNS) [µM]	TGI (SK-OV-3 ovarian) [µM]	TGI (RXF 393 renal) [µM]
Nc1c(C(=O)c2ccccc2)nnc2ccccc12	> 100	> 100	> 100	> 100	> 100	60.3	69.9	> 100	> 100	> 100	> 100	> 100	> 100	> 100	> 100	67.1	–	–	–	–
CC1=C2CC(C)(C)CC(=O)C2(C)CCC1=O (stereo not given)	> 100	> 100	> 100	> 100	> 100	–	> 100	> 100	> 100	> 100	> 100	> 100	> 100	> 100	> 100	> 100	> 100	> 100	> 100	–
CC(=O)Nc1sccc1S(=O)(=O)c1ccc(Cl)cc1	> 100	> 100	> 100	> 100	> 100	> 100	> 100	–	> 100	> 100	> 100	> 100	> 100	> 100	> 100	> 100	–	> 100	> 100	> 100
O[C@]12c3ccccc3C1CCCCC2N1CCOCC1 (stereo not given in full)	> 100	> 100	–	> 100	> 100	–	–	> 100	> 100	–	> 100	> 100	> 100	> 100	> 100	> 100	–	> 100	> 100	> 100
Clc1ccc(Cn2cc(/C=N/n3cnnc3)c3ccccc32)cc1	> 100	> 100	> 100	4.14	> 100	> 100	> 100	> 100	> 100	> 100	> 100	> 100	> 100	> 100	> 100	75	–	> 100	> 100	46.8
COc1cccc2c1[C@H]1OC(=O)NC1CCCCC2 (stereo not given in full)	> 100	> 100	> 100	> 100	> 100	–	–	> 100	> 100	> 100	> 100	> 100	> 100	> 100	> 100	> 100	–	> 100	> 100	> 100
CCOC(=O)C1=C(C)N(CC(C)C)C2(O)C(OC)CC(=O)C3C(=O)N(c4ccccc4)C(=O)C132 (stereo not given)	> 100	> 100	40.2	57.7	59.6	> 100	> 100	> 100	77.9	75.6	> 100	> 100	39.2	70.1	> 100	> 100	–	> 100	–	54.5
C/C(CC(=O)Nc1cccc(Cl)c1C)=N\N=C(N)N	> 100	> 100	> 100	> 100	> 100	–	–	> 100	–	> 100	> 100	> 100	> 100	> 100	> 100	> 100	–	> 100	> 100	> 100
CSc1nc(C)cc(=O)n1C1OC(COC(C)=O)C(OC(C)=O)C(OC(C)=O)C1OC(C)=O (stereo not given)	> 100	> 100	> 100	> 100	> 100	–	–	> 100	> 100	> 100	> 100	> 100	> 100	> 100	> 100	> 100	–	> 100	> 100	–
COC(=O)[C@]1(C)CCCC2(C)C3=C(CCC21)CC1(CC3)SCCS1 (stereo not given in full)	> 10	> 10	> 10	–	> 10	> 10	> 10	–	> 10	> 10	> 10	> 10	–	> 10	> 10	–	> 10	–	> 10	–
C1=C(c2ccccc2)C(OC2Oc3ccccc3C=C2c2ccccc2)Oc2ccccc21 (stereo not given)	45.1	> 100	> 100	> 100	> 100	–	–	> 100	> 100	> 100	> 100	> 100	> 100	> 100	> 100	> 100	–	> 100	> 100	> 100
C=CCCCCCCCCC(=O)ON(Cc1ccc(O)c(OC)c1)C(=O)C(F)(F)F	> 100	> 100	> 100	> 100	> 100	> 100	> 100	> 100	> 100	> 100	> 100	> 100	68	> 100	> 100	> 100	–	> 100	> 100	> 100
O=C(c1ccccc1)c1ccc2nc3n(c2c1)C(c1c(Cl)cccc1Cl)SC3 (stereo not given)	> 100	> 100	> 100	> 100	> 55.5	–	> 94.5	31.6	> 100	19.7	> 64.1	> 100	> 67.6	> 100	83.6	> 51.9	3.84	> 26.6	> 30.7	> 100
CCN(CC)C(=S)S	–	> 100	> 100	> 100	> 100	–	–	> 100	> 100	–	> 100	> 100	> 100	> 84.6	–	–	–	> 100	> 100	> 100
Cc1cc(OC(=O)c2c(C)cc(OC(=O)c3c(C)cc(O)cc3O)cc2O)cc(O)c1C(=O)O	> 100	> 100	> 100	–	> 100	–	–	> 100	> 100	> 100	> 100	–	> 100	> 100	> 100	> 100	–	> 100	> 100	> 100
Cc1cc(OC(=O)Nc2ccc(Cl)cc2)ccc1C(=S)Nc1ccccc1	> 100	> 100	> 100	–	> 100	> 100	–	> 100	> 100	> 100	> 100	> 100	> 100	> 100	–	> 100	> 100	> 100	> 100	–
CCCCOCCOCCOC1=C(Cl)C(=O)c2c(O)ccc(O)c2C1=O	6.72	3.4	2.78	3.21	7.43	–	3.16	1.75	1.75	0.1	3.2	1.11	2.68	1.41	2.92	4.4	2.03	3.13	14.8	2.05
Nc1ncnc2c1ncn2CCOC(c1ccccc1)P(=O)(O)O (stereo not given)	> 100	> 100	> 100	> 100	> 100	–	–	> 100	> 100	> 100	> 100	> 100	> 100	> 100	> 100	> 100	–	> 100	> 100	> 100
O=C(/C=C/c1ccc(Cl)cc1)c1ccc(Cl)s1	> 100	90.9	> 100	–	> 100	–	> 100	26.2	55	> 100	> 100	> 100	> 100	> 100	> 100	> 100	90.2	> 100	> 100	85.8
Nc1ncnc2sc(Nc3ccccc3)nc12	> 100	> 100	> 100	> 100	> 100	–	–	> 100	> 100	> 100	> 100	> 100	> 100	> 100	> 100	> 100	–	> 100	> 100	–
CC(=O)Oc1ccc2cc(Oc3ccccc3)c(=O)oc2c1	> 100	> 100	> 100	> 100	> 100	–	> 100	> 100	> 100	–	> 100	> 100	> 100	> 100	> 100	> 100	> 100	> 100	–	> 100
CO[C@]12C[C@@H](CNC(=O)c3cc(Br)c[nH]3)O[C@H]1NC(=O)N2	> 100	> 100	> 100	> 100	> 100	> 100	> 100	–	> 100	> 100	> 100	> 100	> 100	> 100	> 100	> 100	–	> 100	> 100	–
CCCCOc1ccc(S(=O)(=O)/N=C(\N)Nc2ccc(Cl)cc2)cc1	28	30.9	28.9	44.4	29.9	–	34.3	32.8	32.3	29.9	33.3	27.6	34.8	32	29.9	31.5	30.4	36.1	35	32.3
Cn1c(=O)c(C(=O)NC23CC4CC(CC(C4)C2)C3)c(O)c2ccccc21	59.7	30.3	95.6	48.4	64.1	–	–	> 100	> 100	> 100	43.9	> 100	> 100	> 100	> 100	51.1	–	57.4	73.4	35.9
O=C(O)Cc1ccc(Oc2nc3ccccc3nc2-c2ccccc2)cc1	> 100	> 100	> 100	> 100	> 100	> 100	> 100	> 100	> 100	> 100	> 100	> 100	> 100	> 100	> 100	> 100	–	> 100	> 100	98.2
O=C(Nc1ccc(Cl)c(C(F)(F)F)c1)C(=O)c1c(O)c2ccccc2oc1=O	> 100	> 100	> 100	> 100	> 100	> 100	–	> 100	> 100	> 100	> 100	> 100	> 100	> 100	> 100	> 100	> 100	> 100	> 100	> 100
O=C(NN1C(=O)C(Cl)C1c1c(O)ccc2ccccc12)c1ccccc1O (stereo not given)	> 100	> 100	> 100	> 100	> 100	–	–	> 100	–	> 100	> 100	> 100	> 100	> 100	> 100	> 100	–	> 100	> 100	> 100
